Columns and labels:
[1] = system: cytochrome C; experiment: Western blotting, MPTP-treated SH-SY5Y cells: cytochrome C; assay type: cell-based, human; settings: MPTP-intoxicated SH-SY5Y cells
Protocol: (§1) Human Neuroblastoma Cells (SH-SY5Y) (Korean Cell Bank, Seoul, Korea) were cultured in Dulbecco's modified Eagle's medium containing 10% fetal bovine serum (Hyclone, Logan, Utah, USA) and 1% penicillin-streptomycin (GIBCO, Grand Island, N.Y., USA) in a humidified incubator with 5% CO2 at 37° C.

[2] = system: SOD; assay type: in vivo, C57BL/6 mice; settings: MPTP-treated mice, brain
Source text: (§2) All experimental animals were approved by the Institutional Animal Care and Use Committee at Konkuk University (IACUC approval number, KU18045), Seoul, Republic of Korea.

[3] = system: cytochrome C; assay type: in vivo, C57BL/6 mice; settings: MPTP-intoxicated mice, brain
Source text: as §2

[4] = system: iNos; assay type: in vivo, C57BL/6 mice; settings: brain
Source text: as §2

[5] = system: Mac-1
Protocol: (§3) Four-week-old male SD rats were purchased from Rion Bio, Inc. and were housed in a temperature-controlled (21-22° C.) and light-controlled (12 h light/dark cycle) environment with 70% humidity; they were given free access to water and rodent chow. […] The brains were dissected and analyzed by histological and western blotting analysis.
(§4) Rat brains were lysed in radioimmunoprecipitation assay lysis buffer containing protease inhibitor (Roche, Mannheim, Germany) and centrifuged at 10,000×g for 30 min at 4° C. Total protein levels were determined using a Bio-Rad protein kit (Bio-Rad, Hercules, Calif., USA). The proteins were separated by electrophoresis in a 10-15% sodium dodecyl sulfate-polyacrylamide gel and transferred onto the Immobilon-P transfer membrane (EMD Millipore Co., Bedford, Mass., USA). The membrane was blocked with 5% bovine serum albumin (Sigma-Aldrich). […] Protein bands were detected using a chemiluminescence method (Thermo Fisher Scientific) by a C-DiGit Blot Scanner (Li-COR, Lincoln, Nebr., USA), and their densities were quantified using ImageJ (NIH, Rockville, Md., USA). […]

[6] = system: SH-SY5Y cells; experiment: MTT cell viability in MPTP-treated SH-SY5Y cells; assay type: cell-based, human; settings: 24 h
Protocol: 1-Methyl-4-phenylpyridinium (MPP+) induces a severe parkinsonian-like syndrome and a significant reduction in dopaminergic cells by the selective inhibition of complex I in the mitochondrial electron transport chain.
as §1
SH-SY5Y ([…]) cells were cultured in a 96-well plate, and cell viability was determined using the MTT (Promega, Madison, Wis., USA) assay as described previously. […] The MTT solution was then added, followed by incubation at 37° C. for 4 h. The supernatant was removed, and the formed formazan crystals were dissolved in dimethyl sulfoxide. The absorbance of the resulting solution was measured at 540 nm using a UVM 340 microplate reader (Biochrom Asys, Cambridge, UK).

[7] = system: TH-positive cells; experiment: Immunohistochemical staining of tyrosine hydroxylase (TH) neurons, MPTP-intoxicated mice; assay type: in vivo, C57BL/6 mice
Protocol: Brain sections (4 μm thick) were deparaffinized in xylene-alcohol series for 5 min each, with subsequent recovery of antigenic sites on steam fluent (pot value) for 30 min. The slides were washed twice for 5 min with 1× phosphate-buffered saline (PBS) and then immersed in 0.3% hydrogen peroxide for 30 min at 25° C. to block endogenous peroxidase activity. The sections were incubated with 10% goat serum (for polyclonal antibodies) for 30 min and then incubated at 4° C. with the TH primary antibody (Abcam, Cambridge, UK) for 24 h. Subsequently, all samples were incubated with biotinylated goat anti-rabbit IgG (H+L) horseradish peroxidase (HRP)-conjugated antibodies (Zymax). The sections were incubated with 3,3-diaminobenzidine (Vectro Laboratories, Inc., Burlingame, Calif., USA) for 10 min at 37° C. Finally, the tissue sections were counterstained with hematoxylin for 2 min, dehydrated with an alcohol-xylene series, and mounted with coverslips using Permount mounting medium (Thermo Fisher Scientific). The specimens were examined using a Nikon Eclipse TS100 microscope (Nikon, Tokyo, Japan) at 200× magnification, and the microscopy images were analyzed using the OptiView image analysis software (Korea Lab Tech, Seongnam-si, Republic of Korea). Immunopositive neurons were counted manually.

[8] = system: Mac-1; experiment: Western blotting, MPTP-treated SH-SY5Y cells: Mac-1; assay type: cell-based, human; settings: 2-mM MPTP-intoxicated SH-SY5Y cells
Protocol: as §1

[9] = system: COX-2; assay type: in vivo, SD rats
Protocol: as §3, §4

[10] = system: Bcl-2; experiment: Western blotting of brain, MPTP-treated mice: Bcl-2; assay type: in vivo, C57BL/6 mice; settings: Levodopa (positive control)
Source text: as §2

[11] = system: p-IκB-α; experiment: Western blotting of brain, MPTP-treated mice: p-IκB-α; assay type: in vivo, C57BL/6 mice; settings: Levodopa
Source text: as §2

[12] = system: p-IκB-α; experiment: Western blotting of midbrain, MPTP-treated rats: p-IκB-α; assay type: in vivo, SD rats; settings: levodopa 10 mg/kg
Protocol: as §3, §4

[13] = system: iNOS; experiment: Western blotting of midbrain, MPTP-treated rats: iNOS; assay type: in vivo, SD rats; settings: levodopa 10 mg/kg
Protocol: as §3, §4

SMILES | protein expression level of cytochrome C upregulated [1] [folds] | expression level of SOD lower than in sham group [2] [folds] | protein expression level of cytochrome C upregulated by, compared with sham mice [3] [folds] | iNos protein expression level elevated by, compared with sham group ([4]; MPTP-treated mice) [folds] | expression of Mac-1 protein elevated, compared with sham groups ([5]; MPTP control rats) [fold] | cell death ([6]; 1 mM MPTP) [%] | cell death ([6]; 2 mM MPTP) [%] | number of TH-positive cells reduced, compared with sham group ([7]; MPTP-intoxicated mice, 20 mg/kg/day) | Mac-1 protein expression level elevated by, compared with normal cells [8] [folds] | COX-2 protein overexpressed, with reference to sham operated group ([9]; MPTP-intoxicated rats) [fold] | elevation of iNos expression ([4]; MPTP mice, Levodopa treatment) | elevated level of MAC-1 attenuated vs MPTP control ([5]; MPTP rats, levodopa 10 mg/kg) [fold] | effects of MPTP on Bcl-2 protein expression [10] | increased p-IκB-α level [11] | numbers of TH-positive cells vs MPTP-intoxicated group ([7]; MPTP mice, levodopa 2 mg/kg oral) | p-IκB-α level reduced, compared to MPTP control group [12] [fold] | elevated iNOS expression inhibited vs MPTP control [13] [fold] | expression level of COX-2 downregulated ([9]; MPTP rats, levodopa 10 mg/kg) [fold]
CN1CC=C(c2ccccc2)CC1 [MPTP, 1-methyl-4-phenyl-1,2,3,6-tetrahydropyridine] | 10 | 2.3 | 0.54 | 0.44 | 6.4 | 29.05 | 68.89 | more than two-fold | 0.8 | 6 |  |  |  |  |  |  |  | 
N[C@@H](Cc1ccc(O)c(O)c1)C(=O)O [Levodopa] |  |  |  |  |  |  |  |  |  |  | inhibited | 1.9 | significantly reversed | slightly restored | significantly elevated | 1.2 | 2.9 | 1.7

From US11638736B2, “Compositions for preventing or treating diseases or disorders associated with neuro-inflammation, neuro-apoptosis, or neuro- oxidative damage and uses thereof” (priority 2018, dated 2023)
